{"source": "patent US20230391871A1", "about": "“MONOAMINE OXIDASE BLOCKADE THERAPY FOR TREATING CANCER THROUGH REGULATING TUMOR ASSOCIATED MACROPHAGES (TAMS)” (THE REGENTS OF THE UNIVERSITY OF CALIFORNIA, priority 2020, published 2023)", "key": {"[1]": {"test_system": "Maoa WT and Maoa KO BMDMs", "assay": "Maoa WT and Maoa KO BMDM IL-4/IL-13 polarization with H2O2 or tyramine supplement", "assay_type": "cell-based, mouse", "text": "MAO-A breaks down monoamines and generates hydrogen peroxide (H2O2) as a byproduct, thereby increasing reactive oxygen species (ROS) levels in a TAM. b,c, Studying the in vivo ROS levels in TAMs isolated from Mao WT and Mao KO mice bearing B16-OVA tumours (n=4). (b) Experimental design. (c) FACS analyses of ROS levels in Maoa WT and Maoa KO TAMs at day 18. TAMs were gated as the CD45.2^+CD11b^+Ly6G^−Ly6C^−/lowF4/80^+ cells of total tumour-infiltrating immune cells (TIIs). d, FACS analyses of ROS levels in in vitro-cultured Maoa WT and Maoa KO BMDMs, […] IL-4/IL-13 polarization for 24 hours (n=4). NC, no cytokine-treated control BMDMs: IL-4/IL-13, IL-4/IL-13-polarized BMDMs. e-g, Studying the phenotype of IL-4/IL-13-polarized Maoa WT and Maoa KO BMDMs with or without H2O2 treatment (n=3). BMDMs were treated with H2O2 for 30 minutes prior to IL-4/IL-13 polarization for 24 hours. (e) FACS analyses of CD206 expression on BMDMs. (f,g) QPCR analyses of Chi313 (f) and Arg1 (g) mRNA expression in BMDMs. h-j, Studying the phenotype of IL-4/IL-13-polarized Maoa WT and Maoa KO BMDMs with or without tyramine supplement (n=3). BMDMs were treated with tyramine for 30 minutes prior to IL-4/IL-13 polarization for 24 hours. (h) FACS analyses of ROS levels in BMDMs. (i,j) QPCR analyses of Chi3/3 (i) and Arg1 (j) mRNA expression in BMDMs. k,l, Studying the in vivo Stat6 signaling in TAMs isolated from Mao WT and Mao KO mice bearing B16-OVA tumours (combined from 5 mice per group). (k) Experimental design. (l) Western blot analyses of Stat6 phosphorylation in TAMs at day 18. TAMs were FACS sorted as the DAPI^−CD45.2^+CD11b^+Ly6G^−Ly6C^−/lowF4/80^+ cells from total TIIs. m, Western blot analyses of JAK-Stat6 signaling in in vitro-cultured Maoa WT and Maoa KO BMDMs, with or without IL-4/IL-13 polarization and H2O2 treatment. BMDMs were treated with H2O2 for 30 minutes prior to IL-4/IL-13 stimulation for another 30 minutes. Representative of 3 experiments. All data are presented as the mean±SEM. ns, not significant, *P<0.05, **P<0.01, and ***P<0.001, by 2-way ANOVA (d-j) or by Student's t test (c).\n[…] BMDMs (denoted as WT and KO, respectively) were treated with H2O2 for 30 minutes followed by IL-4/IL-13 stimulation for another 30 minutes. BMDMs were then collected for FACS analysis. N=4. a, FACS plots showing ROS levels in the indicated BMDMs. b, Quantification of A. Representative of 2 experiments. All data are presented as the mean±SEM. ns, not significant, ***P<0.001, by 2-way ANOVA (b).\n(§1) To generate BMDMs, BM cells were collected from femurs and tibias of Maoa WT mice and Maoa KO mice, and were cultured in C10 medium containing with 20% of L929-conditional medium in a 10-cm dish (2×10^6 cells per ml: 12 ml per dish) for 6 days. At day 6, the resulting BMDMs were collected and reseeded in a 6-well plate (1×10^6 cells per ml: 2 ml per well) in C10 medium for 24 hours, in the presence or absence of recombinant murine IL-4 (10 ng/ml) (Peprotech, 200-04) and IL-13 (10 ng/ml) (Peprotech, 200-13) to induce BMDM immunosuppressive polarization.\nIn some experiments, H2O2 (100 μM) were added to the Maoa WT and Maoa KO BMDM polarization culture 30 minutes prior to adding recombinant murine IL-4 and IL-13. At 30 minutes after IL-4/IL-13 stimulation, BMDMs were collected for WB analysis: at 24 hours after IL-4/IL-13 stimulation, BMDMs were collected for flow cytometry and QPCR analysis.\nIn some experiments, tyramine (100 μM) (Sigma-Aldrich, T90344) were added to the Maoa WT and Maoa KO BMDM polarization culture 30 minutes prior to adding recombinant murine IL-4 and IL-13. At 24 hours after IL-4/IL-13 stimulation, BMDMs were collected for flow cytometry and QPCR analysis."}, "[2]": {"test_system": "wildtype BMDMs (bone marrow-derived macrophages)", "assay": "In vitro WT BMDM IL-4/IL-13-induced polarization culture with MAOI treatment", "assay_type": "cell-based, mouse", "conditions": "IL-4/IL-13-stimulated WT BMDMs, 24 h", "description": "(a) Experimental design. Wildtype BMDMs were stimulated with IL-4/IL-13 with or without MAOI treatment. MAOIs (monoamine oxidase inhibitors) studied were phenelzine (Phe: 20 μM), clorgyline (Clo: 20 μM), moclobemide (Moc: 200 μM), and pirlindole (Pir: 20 μM). NT, no MAOI treatment. (b) FACS analyses of ROS levels in BMDMs. (c) FACS analyses of CD206 expression on BMDMs. (d,e) QPCR analyses of Chi313 (d) and Arg1 (e) mRNA expression in BMDMs. f-j, Studying the TAM-related cancer immunotherapy potential of MAOI treatment in a B16-OVA melanoma syngeneic mouse tumour model (n=7-8). (f) Experimental design. B6 wildtype mice were treated with clodronate liposomes (Clod) to serve as TAM-depleted experimental mice, or treated with vehicle liposomes (Veh) to serve as TAM-intact control mice. Phe, phenelzine treatment: NT, no phenelzine treatment. (g) Tumour growth. (h) Tumour volume at day 18. (i) FACS analyses of CD206 expression on TAMs of TAM-intact experimental mice. (j) FACS analyses of intracellular Granzyme B production in tumour-infiltrating CD8^+ T cells of all experimental mice. k-o, Studying the cancer therapy potential of MAOI treatment in combination with anti-PD-1 treatment in the B16-OVA melanoma and MC38 colon cancer syngeneic mouse tumour models (n=5). (k) Experimental design. Tumour-bearing mice were treated with anti-PD-1 antibody (aPD-1) or isotype control (Iso), together with or without phenelzine (Phe) treatment. NT, no Phe treatment. (l) B16-OVA tumour growth. (m) B16-OVA tumour volume at day 18. (n) MC38 tumour growth. (o) MC38 tumour volume at day 27. Representative of 3 experiments. All data are presented as the mean±SEM. ns, not significant, *P<0.05, **P<0.01, and ***P<0.001, by I-way ANOVA (b-e, h, j, m, o) or by Student's t test (i).\nas §1\nIn some experiments, MAOIs were added to the Maoa WT BMDM polarization culture 30 minutes prior to adding recombinant murine IL-4 and IL-13, to block MAO-A activity during BMDM polarization. MAOIs studied were phenelzine (Phe, 20 μM) (Sigma-Aldrich), clorgyline (Clo, 20 μM) (Sigma-Aldrich), moclobemide (Moc, 200 μM) (Sigma-Aldrich), and pirlindole (Pir, 20 μM) (R&D Systems). At 24 hours after IL-4/IL-13 stimulation, BMDMs were collected for analysis.\nCells were stained with surface marker antibodies, washed with PBS, then resuspended in pre-warmed PBS (1×10^6 cells/ml/tube) containing 1 μM CM-H2DCFDA (Thermo Fisher Scientific, C6827). After 15 minutes incubation at room temperature, cells were immediately washed with cold PBS followed by flow cytometry analysis. ROS levels were measured by oxidation of the CM-H2DCFDA probes that can be read out as the fluorescence intensity at the FITC/488 channel of a flow cytometer. Single cell RNA sequencing (scRNAseq) scRNASeq was used to analyze the gene expression profiles of TIIs. B16-OVA tumours were harvested from Maoa WT and Maoa KO mice to prepare TII suspensions (10 tumours were combined for each group). TII suspensions were then sorted using a FACSAria II flow cytometer to purify immune cells (gated as DAPI-CD45.2^+ cells). Sorted TIIs were immediately delivered to the Technology Center for Genomics & Bioinformatics (TCGB) facility at UCLA for library construction and sequencing."}, "[3]": {"conditions": "IL-4/IL-13-stimulated Maoa WT and KO BMDMs, H2O2 100 μM, 24 h"}, "[4]": {"conditions": "MAOI 20 μM added 30 min before cytokines"}, "[5]": {"conditions": "Maoa KO BMDMs, tyramine 100 μM, 30 min before IL-4/IL-13, 24 h"}, "[6]": {"conditions": "Maoa WT BMDMs, tyramine 100 μM, 30 min before IL-4/IL-13, 24 h"}}}
{"smiles": "OO", "note": "[H2O2, hydrogen peroxide]", "values": [{"measurement": "JAK-Stat6 signaling (JAK1, JAK2, JAK3, Stat6 phosphorylation, Western blot)", "setting": "[1]; IL-4/IL-13-stimulated Maoa WT and KO BMDMs, H2O2 100 μM, 30 min stimulation, to similar levels", "result": "increased"}, {"measurement": "Maoa WT vs KO difference in Arg1 expression", "setting": "[1]; [3]", "result": "eliminated their differences"}, {"measurement": "Maoa WT vs KO difference in CD206 expression", "setting": "[1]; [3]", "result": "eliminated their differences"}, {"measurement": "Maoa WT vs KO difference in Chi313 expression", "setting": "[1]; [3]", "result": "eliminated their differences"}, {"measurement": "intracellular ROS in BMDMs", "setting": "[1]; IL-4/IL-13-stimulated Maoa WT and KO BMDMs, H2O2 100 μM, to similar levels", "result": "elevated"}]}
{"smiles": "O=C(NCCN1CCOCC1)c1ccc(Cl)cc1", "note": "[mocolobemide, moclobemide]", "values": [{"measurement": "ROS levels in BMDMs (FACS)", "setting": "[2]; MAOI 200 μM added 30 min before cytokines", "result": "efficiently reduced"}, {"measurement": "Arg1 mRNA expression in BMDMs (QPCR)", "setting": "[2]; MAOI 200 μM", "result": "decreased expression"}, {"measurement": "CD206 expression on BMDMs (FACS)", "setting": "[2]; MAOI 200 μM", "result": "decreased expression"}, {"measurement": "Chi313 mRNA expression in BMDMs (QPCR)", "setting": "[2]; MAOI 200 μM", "result": "decreased expression"}, {"measurement": "immunosuppressive polarization of BMDMs", "setting": "[2]; MAOI 200 μM", "result": "suppressed"}]}
{"smiles": "Cc1ccc2c(c1)c1c3n2CCNC3CCC1", "note": "(centres unmarked) [pirlindole]", "values": [{"measurement": "ROS levels in BMDMs (FACS)", "setting": "[2]; [4]", "result": "efficiently reduced"}, {"measurement": "Arg1 mRNA expression in BMDMs (QPCR)", "setting": "[2]; MAOI 20 μM", "result": "decreased expression"}, {"measurement": "CD206 expression on BMDMs (FACS)", "setting": "[2]; MAOI 20 μM", "result": "decreased expression"}, {"measurement": "Chi313 mRNA expression in BMDMs (QPCR)", "setting": "[2]; MAOI 20 μM", "result": "decreased expression"}, {"measurement": "immunosuppressive polarization of BMDMs", "setting": "[2]; MAOI 20 μM", "result": "suppressed"}]}
{"smiles": "NCCc1ccc(O)cc1", "note": "[tyramine]", "values": [{"measurement": "increase of ROS levels in BMDMs", "setting": "[1]; [5]", "result": "not"}, {"measurement": "upregulation of Arg1 mRNA expression in BMDMs", "setting": "[1]; [5]", "result": "not"}, {"measurement": "upregulation of Chi313 mRNA expression in BMDMs", "setting": "[1]; [5]", "result": "not"}, {"measurement": "Arg1 mRNA expression in BMDMs", "setting": "[1]; [6]", "result": "upregulated"}, {"measurement": "Chi313 mRNA expression in BMDMs", "setting": "[1]; [6]", "result": "upregulated"}, {"measurement": "ROS levels in BMDMs", "setting": "[1]; [6]", "result": "increased"}]}
{"smiles": "C#CCN(C)CCCOc1ccc(Cl)cc1Cl", "note": "[clorgyline]", "values": [{"measurement": "ROS levels in BMDMs (FACS)", "setting": "[2]; [4]", "result": "efficiently reduced"}, {"measurement": "Arg1 mRNA expression in BMDMs (QPCR)", "setting": "[2]; MAOI 20 μM", "result": "decreased expression"}, {"measurement": "CD206 expression on BMDMs (FACS)", "setting": "[2]; MAOI 20 μM", "result": "decreased expression"}, {"measurement": "Chi313 mRNA expression in BMDMs (QPCR)", "setting": "[2]; MAOI 20 μM", "result": "decreased expression"}, {"measurement": "immunosuppressive polarization of BMDMs", "setting": "[2]; MAOI 20 μM", "result": "suppressed"}]}
